Assay results from patent US11078193B2 (priority 2014, dated 2021).

Columns and labels:
HBV [1] = assay: anti-HBV activity, HepG2.2.15 stable transfected cell line, HBV DNA from secreted virions by realtime PCR; assay type: cell-based; settings: Hepatitis B virus, 144 h, HepG2.2.15 cells, 6 days of treatment
HBV [2] = assay: anti HBV activity, HepG2.117 inducibly HBV producing cell line (Tet-off), intracellular HBV DNA by realtime PCR; assay type: cell-based; settings: Hepatitis B virus, 72 h, HepG2.117 cells, 3 days of treatment
[3] = Cytotoxicity, HepG2 cells, Resazurin assay; assay type: cell-based; settings: human
[4] = ATP based toxicity assay (ATPlite), HepG2 cell line; settings: human, HepG2 cells, ATPlite (ATP levels)
Procedure, shortened: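 HepG2 cells exposed to compound, then ATPlite reagent added at 1 volume. Cellular ATP read by luminescence as a viability measure.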

Row | SMILES | EC50 (HBV [1]) [nM] | EC50 (HBV [2]) [nM] | CC50 at 4 days [3] [µM] | CC50 at 4 days [4] [µM]
1 | C[C@@H](NS(=O)(=O)c1cn(C)c(C(=O)Nc2ccnc(C(F)F)c2)c1Cl)C(C)(F)F [Compound 97, 3-chloro-4-[[(1R)-2,2-difluoro-1-methyl-propyl]sulfamoyl]-N-[2-(difluoromethyl)-4-pyridyl]-1-methyl-pyrrole-2-carboxamide] | 20 | 20 | > 25 | > 25
2 | C[C@@H](NS(=O)(=O)c1cn(C)c(C(=O)Nc2ccnc(C(F)F)c2)c1F)C(F)(F)F [Compound 80, N-[2-(difluoromethyl)-4-pyridyl]-3-fluoro-1-methyl-4-[[(1R)-2,2,2-trifluoro-1-methyl-ethyl]sulfamoyl]pyrrole-2-carboxamide] | 10 | 20 | > 25 | > 25
3 | C[C@@H](NS(=O)(=O)c1cn(C)c(C(=O)Nc2cc(F)nc(F)c2)c1Cl)C(C)(F)F [Compound 104, 3-chloro-4-[[(1R)-2,2-difluoro-1-methyl-propyl]sulfamoyl]-N-(2,6-difluoro-4-pyridyl)-1-methyl-pyrrole-2-carboxamide] | < 100 | 10 | > 25 | > 25
4 | Cc1c(S(=O)(=O)N[C@H](C)C(F)(F)F)c(F)c(C(=O)Nc2cc(F)nc(F)c2)n1C [Compound 199, N-(2,6-difluoro-4-pyridyl)-3-fluoro-1,5-dimethyl-4-[[(1R)-2,2,2-trifluoro-1-methyl-ethyl]sulfamoyl]pyrrole-2-carboxamide] | < 100 | 6 |  | > 25
5 | Cn1cc(S(=O)(=O)NC2(C(F)(F)F)CCC2)c(Cl)c1C(=O)Nc1ccnc(C#N)c1 [Compound 40, 3-chloro-N-(2-cyano-4-pyridyl)-1-methyl-4-[[1-(trifluoromethyl)cyclobutyl]sulfamoyl]pyrrole-2-carboxamide] | 20 | 20 | > 25 | > 25
6 | Cc1cc(NC(=O)c2c(F)c(S(=O)(=O)N[C@H](C)C(F)(F)F)cn2C)cc(C(F)F)n1 [Compound 179, N-[2-(difluoromethyl)-6-methyl-4-pyridyl]-3-fluoro-1-methyl-[[(1R)-2,2,2-trifluoro-1-methyl-ethyl]sulfamoyl]pyrrole-2-carboxamide] | 210 | 70 |  | > 25
7 | C[C@@H](NS(=O)(=O)c1cn(C)c(C(=O)Nc2ccnc(Br)c2F)c1F)C(C)(F)F [Compound 176, N-(2-bromo-3-fluoro-4-pyridyl)-4-[[(1R)-2,2-difluoro-1-methyl-propyl]sulfamoyl]-3-fluoro-1-methyl-pyrrole-2-carboxamide] | < 100 | 3 |  | > 25
8 | C[C@@H](NS(=O)(=O)c1cn(C)c(C(=O)Nc2cc(F)nc(F)c2)c1F)C(C)(F)F [Compound 159, 4-[[(1R)-2,2-difluoro-1-methyl-propyl]sulfamoyl]-N-(2,6-difluoro-4-pyridyl)-3-fluoro-1-methyl-pyrrole-2-carboxamide] | < 100 | 9 | > 25 | > 25
9 | Cn1cc(S(=O)(=O)NC2(C(F)(F)F)CCC2)c(Cl)c1C(=O)Nc1ccnc(Cl)c1 [Compound 46, 3-chloro-N-(2-chloro-4-pyridyl)-1-methyl-4-[[1-(trifluoromethyl)cyclobutyl]-sulfamoyl]pyrrole-2-carboxamide] | 10 | 20 | > 25 | > 25
10 | C[C@@H](NS(=O)(=O)c1cn(C)c(C(=O)Nc2ccnc(Cl)c2)c1F)C(F)(F)F [Compound 20, N-(2-chloro-4-pyridyl)-3-fluoro-1-methyl-[[(1R)-2,2,2-trifluoro-1-methyl-ethyl]sulfamoyl]pyrrole-2-carboxamide] | 30 | 20 | > 25 | > 25
11 | C[C@@H](NS(=O)(=O)c1cn(C)c(C(=O)Nc2ccnc(Br)c2)c1F)C(F)(F)F [Compound 23, N-(2-bromo-4-pyridyl)-3-fluoro-1-methyl-4-[[(1R)-2,2,2-trifluoro-1-methyl-ethyl]sulfamoyl]pyrrole-2-carboxamide] | 10 | 10 | > 25 | > 25
12 | C[C@@H](NS(=O)(=O)c1cn(C)c(C(=O)Nc2ccnc(F)c2)c1F)C(C)(F)F [Compound 98, 4-[[(1R)-2,2-difluoro-1-methyl-propyl]sulfamoyl]-3-fluoro-N-(2-fluoro-4-pyridyl)-1-methyl-pyrrole-2-carboxamide] | 40 | 30 | > 25 | > 25
13 | C[C@@H](NS(=O)(=O)c1cn(C)c(C(=O)Nc2ccnc(Cl)c2)c1F)C(C)(F)F [Compound 61, N-(2-chloro-4-pyridyl)-4-[[(1R)-2,2-difluoro-1-methyl-propyl]sulfamoyl]-3-fluoro-1-methyl-pyrrole-2-carboxamide] | 10 | 20 | > 25 | > 25
14 | Cc1c(S(=O)(=O)N[C@H](C)C(F)(F)F)c(F)c(C(=O)Nc2ccnc(Cl)c2)n1C [Compound 200, N-(2-chloro-4-pyridyl)-3-fluoro-1,5-dimethyl-4-[[(1R)-2,2,2-trifluoro-1-methyl-ethyl]sulfamoyl]pyrrole-2-carboxamide] | 110 | 20 |  | > 25
15 | C[C@@H](NS(=O)(=O)c1cn(C)c(C(=O)Nc2ccnc(C(F)F)c2)c1Cl)C(F)(F)F [Compound 74, 3-chloro-N-[2-(difluoromethyl)-4-pyridyl]-1-methyl-4-[[(1R)-2,2,2-trifluoro-1-methyl-ethyl]sulfamoyl]pyrrole-2-carboxamide] | 20 | 20 | > 25 | > 25
16 | Cc1c(S(=O)(=O)N[C@H](C)C(F)(F)F)c(Cl)c(C(=O)Nc2ccnc(C#N)c2)n1C [Compound 32, 3-chloro-N-(2-cyano-4-pyridyl)-1,5-dimethyl-4-[[(1R)-2,2,2-trifluoro-1-methyl-ethyl]sulfamoyl]pyrrole-2-carboxamide] | 20 | 20 | > 25 | > 25
17 | C[C@@H](NS(=O)(=O)c1cn(C)c(C(=O)Nc2ccnc(C#N)c2)c1F)C(C)(F)F [Compound 63, N-(2-cyano-4-pyridyl)-4-[[(1R)-2,2-difluoro-1-methyl-propyl]sulfamoyl]-3-fluoro-1-methyl-pyrrole-2-carboxamide] | 10 | 30 | > 25 | > 25
18 | Cn1cc(S(=O)(=O)NC2(C(F)(F)F)CC2)c(F)c1C(=O)Nc1ccnc(Cl)c1 [Compound 175, N-(2-chloro-4-pyridyl)-3-fluoro-1-methyl-4-[[1-(trifluoromethyl)cyclopropyl]sulfamoyl]pyrrole-2-carboxamide] | 120 | 20 |  | > 25
19 | Cn1cc(S(=O)(=O)NC2(C)CC(F)(F)C2)c(F)c1C(=O)Nc1ccnc(Cl)c1F [Compound 81, N-(2-chloro-3-fluoro-4-pyridyl)-4-[(3,3-difluoro-1-methyl-cyclobutyl)sulfamoyl]-3-fluoro-1-methyl-pyrrole-2-carboxamide] | 10 | 8 | 24.3 | > 25
20 | C[C@@H](NS(=O)(=O)c1cn(C)c(C(=O)Nc2ccnc(C#N)c2)c1F)C(F)(F)F [Compound 18, N-(2-Cyanopyridin-4-yl)-3-fluoro-1-methyl-4-{[(1R)-2,2,2-trifluoro-1-methylethyl]sulfamoyl}-1H-pyrrole-2-carboxamide] | 30 | 30 | > 25 | > 25
21 | Cc1cc(NC(=O)c2c(F)c(S(=O)(=O)N[C@H](C)C(C)(F)F)cn2C)cc(C(F)F)n1 [Compound 178, N-[2-(difluoromethyl)-6-methyl-4-pyridyl]-4-[[(1R)-2,2-difluoro-1-methyl-propyl]sulfamoyl]-3-fluoro-1-methyl-pyrrole-2-carboxamide] | 240 | 50 |  | > 25
22 | C[C@@H](NS(=O)(=O)c1cc(C(=O)Nc2ccnc(C(F)F)c2)n(C)c1)C(C)(F)F [Compound 100, 4-[[(1R)-2,2-difluoro-1-methyl-propyl]sulfamoyl]-N-[2-(difluoromethyl)-4-pyridyl]-1-methyl-pyrrole-2-carboxamide] |  | 80 | > 25 | > 25
23 | Cn1cc(S(=O)(=O)NC2(C)CC(F)(F)C2)c(Cl)c1C(=O)Nc1ccnc(Br)c1 [Compound 113, N-(2-bromo-4-pyridyl)-3-chloro-4-[(3,3-difluoro-1-methyl-cyclobutyl)sulfamoyl]-1-methyl-pyrrole-2-carboxamide] |  | 10 | > 25 | 23.7
24 | Cc1cc(NC(=O)c2c(Cl)c(S(=O)(=O)N[C@H](C)C(F)(F)F)cn2C)cc(C(F)F)n1 [Compound 177, 3-chloro-N-[2-(difluoromethyl)-6-methyl-4-pyridyl]-1-methyl-[[(1R)-2,2,2-trifluoro-1-methyl-ethyl]sulfamoyl]pyrrole-2-carboxamide] | 260 | 100 |  | > 25
25 | C[C@@H](NS(=O)(=O)c1cn(C)c(C(=O)Nc2ccnc(Br)c2)c1Cl)C(F)(F)F [Compound 106, N-(2-bromo-4-pyridyl)-3-chloro-1-methyl-4-[[(1R)-2,2,2-trifluoro-1-methyl-ethyl]sulfamoyl]pyrrole-2-carboxamide] |  | 20 | > 25 | > 25
